Laboratory results published in patent US7893256B2, “Azabicycloalkane compounds” (Theravance, Inc., priority 2003, dated 2011).

Target: T1, M3 muscarinic receptor (hM3) (Homo sapiens, UniProt P20309)
T1 construct: expressed in transfected cells; membranes
Experiment: Radioligand binding assay for muscarinic receptors (Assay Test Procedure B)
Settings: radioligand displacement, CHO cell membranes, [3H]-NMS
Protocol: CHO cell lines stably expressing cloned human hM1, hM2, hM3 and hM4 muscarinic receptor subtypes, respectively, were grown to near confluency in HAM's F-12 media supplemented with 10% FBS and 250 μg/mL Geneticin. The cells were grown in a 5% CO2, 37° C. incubator and lifted with 2 mM EDTA in dPBS. Cells were collected by 5 minute centrifugation at 650×g, and cell pellets were either stored frozen at −80° C. or membranes were prepared immediately for use. For membrane preparation, cell pellets were resuspended in lysis buffer and homogenized with a Polytron PT-2100 tissue disrupter (Kinematica AG; 20 seconds×2 bursts). Crude membranes were centrifuged at 40,000×g for 15 minutes at 4° C. […] The protein concentration of the membrane suspension was determined by the method described in Lowry et al., 1951, Journal of Biochemistry, 193, 265. […]
Radioligand binding assays for cloned human muscarinic receptors were performed in 96-well microtiter plates in a total assay volume of 100 μL. […] Filter plates were rinsed three times with wash buffer (10 mM HEPES) to remove unbound radioactivity. […] The plates were then counted in a PerkinElmer Topcount liquid scintillation counter (PerkinElmer Inc., Wellesley, Mass.). Binding data were analyzed by nonlinear regression analysis with the GraphPad Prism Software package (GraphPad Software, Inc., San Diego, Calif.) using the one-site competition model. […]

T1 sequence (P20309 whole entry): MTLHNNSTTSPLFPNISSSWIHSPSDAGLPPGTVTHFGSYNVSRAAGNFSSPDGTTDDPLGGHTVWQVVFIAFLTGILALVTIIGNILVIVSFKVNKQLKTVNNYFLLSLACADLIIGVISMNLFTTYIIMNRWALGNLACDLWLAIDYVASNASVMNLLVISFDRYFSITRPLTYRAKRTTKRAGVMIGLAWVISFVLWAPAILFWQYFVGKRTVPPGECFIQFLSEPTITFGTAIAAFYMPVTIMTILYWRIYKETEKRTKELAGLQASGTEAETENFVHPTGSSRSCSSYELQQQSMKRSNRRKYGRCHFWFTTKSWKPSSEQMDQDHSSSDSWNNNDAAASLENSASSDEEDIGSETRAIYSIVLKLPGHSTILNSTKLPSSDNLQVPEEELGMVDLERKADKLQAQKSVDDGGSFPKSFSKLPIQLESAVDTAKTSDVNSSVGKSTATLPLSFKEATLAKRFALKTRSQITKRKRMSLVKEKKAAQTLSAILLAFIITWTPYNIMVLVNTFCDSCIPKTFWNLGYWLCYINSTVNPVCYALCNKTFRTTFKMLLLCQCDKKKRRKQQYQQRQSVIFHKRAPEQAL

C[N+]1(CCCCCCCCCNC[C@H](O)c2ccc(O)c3[nH]c(=O)ccc23)C2CC(OC(=O)C(O)(c3cccs3)c3cccs3)CC1C1OC12.C[N+]1(CCCCCCCCCNC[C@H](O)c2ccc(O)c3[nH]c(=O)ccc23)C2CC(OC(=O)C(O)(c3cccs3)c3cccs3)CC1C1OC12.O=C([O-])C(F)(F)F.O=C([O-])C(F)(F)F (stereo partly drawn) [Example 1, 7-(2-Hydroxy-2,2-dithiophen-2-ylacetoxy)-9-{9-[(R)-2-hydroxy-2-(8-hydroxy-2-oxo-1,2-dihydroquinolin-5-yl)ethylamino]nonyl}-9-methyl-3-oxa-9-azonia-tricyclo[3.3.1.0^2,4]nonane Ditrifluoroacetate]
Ki: < 50 nM
